This experiment has as its system MV-4-11 cells. Briefly: Gene expression microarray analysis (Affymetrix PrimeView) and GSEA. Format: cell-based, human. Also on record: RFU PODN (11730768_x_at) / Fold change /veh PODN (11730768_x_at) / RFU LINC00158 (11744669_a_at) / Fold change /veh LINC00158 (11744669_a_at) / RFU DUSP10 (11751237_a_at) / Fold change /veh DUSP10 (11751237_a_at) / RFU ID3 (11757404_x_at) / Fold change /veh ID3 (11757404_x_at) / RFU PLEKHG5 (11737974_s_at) / Fold change /veh PLEKHG5 (11737974_s_at) / RFU LRRC4B (11730491_at) / Fold change /veh LRRC4B (11730491_at) / RFU GIMAP4 (11747438_a_at) / Fold change /veh GIMAP4 (11747438_a_at) / RFU KRT8 (11758183_x_at) / Fold change /veh KRT8 (11758183_x_at) / RFU CNN1 (11734310_a_at) / Fold change /veh CNN1 (11734310_a_at) / RFU VPS37D (11726825_at) / Fold change /veh VPS37D (11726825_at) / RFU C10orf10 (11716522_x_at) / Fold change /veh C10orf10 (11716522_x_at) / RFU KIR2DL2 /// KIR2DL4 /// KIR2DL5A /// KIR2DL5B /// KIR2DS1 /// KIR2DS2 /// KIR2DS3 /// KIR2DS4 /// KIR3DL3 /// KIR3DL3 /// KIR3DS1 (11738374_at) / Fold change /veh KIR2DL2 /// KIR2DL4 /// KIR2DL5A /// KIR2DL5B /// KIR2DS1 /// KIR2DS2 /// KIR2DS3 /// KIR2DS4 /// KIR3DL3 /// KIR3DL3 /// KIR3DS1 (11738374_at) / RFU C1QL1 (11718748_at) / Fold change /veh C1QL1 (11718748_at) / RFU TMPRSS4 (11747572_a_at) / Fold change /veh TMPRSS4 (11747572_a_at) / RFU HAMP (11756126_x_at) / Fold change /veh HAMP (11756126_x_at) / RFU RNFT2 (11725882_a_at) / Fold change /veh RNFT2 (11725882_a_at) / RFU NR4A2 (11747474_a_at) / Fold change /veh NR4A2 (11747474_a_at) / RFU ABCC12 (11746883_a_at) / Fold change /veh ABCC12 (11746883_a_at) / RFU TMEM136 (11760407_x_at) / Fold change /veh TMEM136 (11760407_x_at) / RFU CLDN22 /// WWC2 (11732394_at) / Fold change /veh CLDN22 /// WWC2 (11732394_at) / RFU HLA-DPB1 (11760878_x_at) / Fold change /veh HLA-DPB1 (11760878_x_at) / RFU SPINT1 (11716480_a_at) / Fold change /veh SPINT1 (11716480_a_at) / RFU GAP43 (11754022_s_at) / Fold change /veh GAP43 (11754022_s_at) / RFU A4GNT (11735810_at) / Fold change /veh A4GNT (11735810_at) / RFU PRB3 (11715151_x_at) / Fold change /veh PRB3 (11715151_x_at) / RFU TUBB4B (11761932_at) / Fold change /veh TUBB4B (11761932_at) / RFU CAPN14 (11732068_a_at) / Fold change /veh CAPN14 (11732068_a_at) / RFU TMCC2 (11721928_a_at) / Fold change /veh TMCC2 (11721928_a_at) / RFU IRGQ (11745062_a_at) / Fold change /veh IRGQ (11745062_a_at) / RFU FAM174B (11720279_a_at) / Fold change /veh FAM174B (11720279_a_at) / RFU TMPRSS4 (11748680_a_at) / Fold change /veh TMPRSS4 (11748680_a_at) / RFU FAM212B (11763350_a_at) / Fold change /veh FAM212B (11763350_a_at) / RFU PLEKHG5 (11743358_a_at) / Fold change /veh PLEKHG5 (11743358_a_at) / RFU ZSCAN30 (11745921_a_at) / Fold change /veh ZSCAN30 (11745921_a_at) / RFU CMKLR1 (11741424_a_at) / Fold change /veh CMKLR1 (11741424_a_at) / RFU LOC101060620 /// MAPK8IP1 (11723275_at) / Fold change /veh LOC101060620 /// MAPK8IP1 (11723275_at) / RFU SPTSSB (11747773_x_at) / Fold change /veh SPTSSB (11747773_x_at) / RFU PRSS12 (11739890_at) / Fold change /veh PRSS12 (11739890_at) / RFU BIN1 (11741810_x_at) / Fold change /veh BIN1 (11741810_x_at) / RFU WNT11 (11732464_a_at) / Fold change /veh WNT11 (11732464_a_at) / RFU C10orf10 (11716521_a_at) / Fold change /veh C10orf10 (11716521_a_at) / RFU C5orf56 (11738089_at) / Fold change /veh C5orf56 (11738089_at) / RFU CYB561 (11721691_x_at) / Fold change /veh CYB561 (11721691_x_at) / RFU ANKRD19P (11752326_a_at) / Fold change /veh ANKRD19P (11752326_a_at) / RFU OR2T12 /// OR2T33 /// OR2T8 (11738714_s_at) / Fold change /veh OR2T12 /// OR2T33 /// OR2T8 (11738714_s_at) / RFU VCAN (11748164_a_at) / Fold change /veh VCAN (11748164_a_at) / RFU JSRP1 (11732532_at) / Fold change /veh JSRP1 (11732532_at) / RFU KRTAP10-11 (11738290_x_at) / Fold change /veh KRTAP10-11 (11738290_x_at) / RFU MYO3A (11730013_a_at) / Fold change /veh MYO3A (11730013_a_at) / RFU EBF3 (11725865_a_at) / Fold change /veh EBF3 (11725865_a_at) / RFU CAMK2N1 (11719241_x_at) / Fold change /veh CAMK2N1 (11719241_x_at) / RFU C5orf56 (11738088_a_at) / Fold change /veh C5orf56 (11738088_a_at) / RFU OLFML3 (11715873_a_at) / Fold change /veh OLFML3 (11715873_a_at) / RFU LOC100653217 /// NTM (11731650_a_at) / Fold change /veh LOC100653217 /// NTM (11731650_a_at) / RFU MAPK11 (11762145_a_at) / Fold change /veh MAPK11 (11762145_a_at) / RFU FIZ1 (11724087_x_at) / Fold change /veh FIZ1 (11724087_x_at) / RFU OASL (11726364_x_at) / Fold change /veh OASL (11726364_x_at) / RFU SOX15 (11748057_x_at) / Fold change /veh SOX15 (11748057_x_at) / RFU CD79A (11719716_a_at) / Fold change /veh CD79A (11719716_a_at) / RFU HIST1H1D (11736915_at) / Fold change /veh HIST1H1D (11736915_at) / RFU CASKIN2 (11723855_a_at) / Fold change /veh CASKIN2 (11723855_a_at) / RFU LOC730098 (11760151_x_at) / Fold change /veh LOC730098 (11760151_x_at) / RFU OR4N2 (11742367_at) / Fold change /veh OR4N2 (11742367_at) / RFU PRRT2 (11749266_a_at) / Fold change /veh PRRT2 (11749266_a_at) / RFU SNX32 (11753110_a_at) / Fold change /veh SNX32 (11753110_a_at) / RFU CDHR5 (11726645_a_at) / Fold change /veh CDHR5 (11726645_a_at) / RFU RCAN1 (11760418_a_at) / Fold change /veh RCAN1 (11760418_a_at) / RFU FAM167A (11723789_a_at) / Fold change /veh FAM167A (11723789_a_at) / RFU FAM26E (11764081_at) / Fold change /veh FAM26E (11764081_at) / RFU ISYNA1 (11749810_s_at) / Fold change /veh ISYNA1 (11749810_s_at) / RFU ACY1 (11761880_at) / Fold change /veh ACY1 (11761880_at) / RFU 11764098_at / Fold change /veh 11764098_at / RFU SAMD14 (11745864_x_at) / Fold change /veh SAMD14 (11745864_x_at) / RFU NPB (11741838_a_at) / Fold change /veh NPB (11741838_a_at) / RFU TMPRSS6 (11731388_a_at) / Fold change /veh TMPRSS6 (11731388_a_at) / RFU KRTAP10-2 (11738614_at) / Fold change /veh KRTAP10-2 (11738614_at) / RFU ARHGAP8 /// PRR5-ARHGAP8 (11727945_x_at) / Fold change /veh ARHGAP8 /// PRR5-ARHGAP8 (11727945_x_at) / RFU KRTAP5-7 /// NADSYN1 (11734609_at) / Fold change /veh KRTAP5-7 /// NADSYN1 (11734609_at) / RFU RASL12 (11751679_a_at) / Fold change /veh RASL12 (11751679_a_at) / RFU CDKN2B (11736163_a_at) / Fold change /veh CDKN2B (11736163_a_at) / RFU PRF1 (11729649_at) / Fold change /veh PRF1 (11729649_at) / RFU, ZNF638 /// ZNF638-IT1 / Fold change vs veh, ZNF638 /// ZNF638-IT1 / RFU, PANK3 / Fold change vs veh, PANK3 / RFU, SH3YL1 / Fold change vs veh, SH3YL1 / RFU, ZEB2 / Fold change vs veh, ZEB2 / RFU, NRIP1 / Fold change vs veh, NRIP1 / RFU, PTTG1IP / Fold change vs veh, PTTG1IP / RFU, CAPN2 / Fold change vs veh, CAPN2 / RFU, MED14 / Fold change vs veh, MED14 / RFU, SNORA58 / Fold change vs veh, SNORA58 / RFU, C1orf63 / Fold change vs veh, C1orf63 / RFU, LRRFIP1 / Fold change vs veh, LRRFIP1 / RFU, NDUFAF7 / Fold change vs veh, NDUFAF7 / RFU, SLC12A2 / Fold change vs veh, SLC12A2 / RFU, IBTK / Fold change vs veh, IBTK / RFU, ESF1 / Fold change vs veh, ESF1 / Fold change vs veh, TMEM50B / RFU, TAOK1 / Fold change vs veh, TAOK1 / RFU, ACBD3 / Fold change vs veh, ACBD3 / RFU, TMA16 / Fold change vs veh, TMA16 / RFU, RWDD3 / Fold change vs veh, RWDD3 / RFU, BCAT1 / Fold change vs veh, BCAT1 / RFU, EDEM3 / Fold change vs veh, EDEM3 / RFU, TMEM33 / Fold change vs veh, TMEM33 / RFU, WDR75 / Fold change vs veh, WDR75 / RFU, AHCTF1 / Fold change vs veh, AHCTF1 / RFU, TFRC / Fold change vs veh, TFRC / RFU, ZDHHC17 / Fold change vs veh, ZDHHC17 / RFU, NOM1 / Fold change vs veh, NOM1 / RFU, ARL8B / Fold change vs veh, ARL8B / RFU, ZBTB11 / Fold change vs veh, ZBTB11 / RFU, TAMM41 / Fold change vs veh, TAMM41 / RFU, KIAA1704 /// LOC100996395 / Fold change vs veh, KIAA1704 /// LOC100996395 / RFU, ING1 / Fold change vs veh, ING1 / RFU, TRMT61B / Fold change vs veh, TRMT61B / RFU, FUBP3 / Fold change vs veh, FUBP3 / RFU, TP53 / Fold change vs veh, TP53 / RFU, TNKS2 / Fold change vs veh, TNKS2 / RFU, ZFP14 / Fold change vs veh, ZFP14 / RFU, ACTR2 / Fold change vs veh, ACTR2 / RFU, PPP3R1 / Fold change vs veh, PPP3R1 / RFU, PIK3R1 / Fold change vs veh, PIK3R1 / RFU, HNRNPA1 / Fold change vs veh, HNRNPA1 / RFU, RNF170 / Fold change vs veh, RNF170 / RFU, ZNF28 / Fold change vs veh, ZNF28 / RFU, RNGTT / Fold change vs veh, RNGTT / RFU, OGT / Fold change vs veh, OGT / RFU, BRD1 / Fold change vs veh, BRD1 / RFU, MARS / Fold change vs veh, MARS / RFU, ZNF655 / Fold change vs veh, ZNF655 / RFU, FAHD1 / Fold change vs veh, FAHD1 / RFU, BDP1 / Fold change vs veh, BDP1 / RFU, LRRCC1 / Fold change vs veh, LRRCC1 / RFU, ARID1A / Fold change vs veh, ARID1A / RFU, ZNF146 / Fold change vs veh, ZNF146 / RFU, ZNF330 / Fold change vs veh, ZNF330 / RFU, GPN3 / Fold change vs veh, GPN3 / RFU, C9orf123 / Fold change vs veh, C9orf123 / RFU, N4BP2L2 / Fold change vs veh, N4BP2L2 / RFU, ARFIP1 / Fold change vs veh, ARFIP1 / RFU, FAM179B / Fold change vs veh, FAM179B / RFU, BCL10 / Fold change vs veh, BCL10 / RFU, UHRF1BP1L / Fold change vs veh, UHRF1BP1L / RFU, BET1 / Fold change vs veh, BET1 / RFU, CNOT2 / Fold change vs veh, CNOT2 / RFU, ZNF268 / Fold change vs veh, ZNF268 / Fold change vs veh, ZNF507 / RFU, DGCR2 / Fold change vs veh, DGCR2 / RFU, WDSUB1 / Fold change vs veh, WDSUB1 / Fold change vs veh, HSP90B1 /// MIR3652 / RFU, ADSS / Fold change vs veh, ADSS / RFU, GK / Fold change vs veh, GK / RFU, ZNF148 / Fold change vs veh, ZNF148 / RFU, TAF9 / Fold change vs veh, TAF9 / RFU, SLC1A5 / Fold change vs veh, SLC1A5 / RFU, SLMO2 / Fold change vs veh, SLMO2 / RFU, ABCC4 / Fold change vs veh, ABCC4 / RFU, LOC101060439 /// RAP1B / Fold change vs veh, LOC101060439 /// RAP1B / RFU, RFX7 / Fold change vs veh, RFX7 / RFU, GTPBP10 / Fold change vs veh, GTPBP10 / RFU, CNEP1R1 / Fold change vs veh, CNEP1R1 / RFU, BIVM-ERCC5 /// ERCC5 / Fold change vs veh, BIVM-ERCC5 /// ERCC5 / RFU, ILF3 / Fold change vs veh, ILF3 / RFU 11762660_at / Fold change /veh 11762660_at / RFU VCAN (11757783_s_at) / Fold change /veh VCAN (11757783_s_at) / RFU DDX43 (11728927_at) / Fold change /veh DDX43 (11728927_at) / RFU KRT8 (11758188_x_at) / Fold change /veh KRT8 (11758188_x_at) / RFU NKD1 (11759106_at) / Fold change /veh NKD1 (11759106_at) / RFU SRD5A1 (11742802_a_at) / Fold change /veh SRD5A1 (11742802_a_at) / RFU TPSAB1 /// TPSB2 (11721975_s_at) / Fold change /veh TPSAB1 /// TPSB2 (11721975_s_at) / RFU GSTM3 (11746129_a_at) / Fold change /veh GSTM3 (11746129_a_at) / RFU IL23R (11737362_x_at) / Fold change /veh IL23R (11737362_x_at) / RFU TMEM51 (11727254_a_at) / Fold change /veh TMEM51 (11727254_a_at) / RFU PIWIL2 (11732686_x_at) / Fold change /veh PIWIL2 (11732686_x_at) / RFU ORM1 (11744905_x_at) / Fold change /veh ORM1 (11744905_x_at) / RFU CCDC152 (11743942_at) / Fold change /veh CCDC152 (11743942_at) / RFU ECM1 (11717891_a_at) / Fold change /veh ECM1 (11717891_a_at) / RFU IL23R (11748794_a_at) / Fold change /veh IL23R (11748794_a_at) / RFU TNFAIP8L3 (11732012_x_at) / Fold change /veh TNFAIP8L3 (11732012_x_at) / RFU MBOAT4 (11741988_at) / Fold change /veh MBOAT4 (11741988_at) / RFU 11764193_at / Fold change /veh 11764193_at / RFU TMEM53 (11763286_at) / Fold change /veh TMEM53 (11763286_at) / RFU MAGEB2 (11727129_at) / Fold change /veh MAGEB2 (11727129_at) / RFU TMEM200A (11744735_a_at) / Fold change /veh TMEM200A (11744735_a_at) / RFU CCDC152 (11751479_a_at) / Fold change /veh CCDC152 (11751479_a_at) / RFU FAM211A (11726209_a_at) / Fold change /veh FAM211A (11726209_a_at) / RFU RGS16 (11746705_a_at) / Fold change /veh RGS16 (11746705_a_at) / RFU VCAN (11755009_s_at) / Fold change /veh VCAN (11755009_s_at) / RFU RHOB (11743442_s_at) / Fold change /veh RHOB (11743442_s_at) / RFU RGS16 (11720943_a_at) / Fold change /veh RGS16 (11720943_a_at) / RFU RGS16 (11720944_at) / Fold change /veh RGS16 (11720944_at) / RFU, VPS4B / Fold change vs veh, VPS4B / RFU, CREB1 / Fold change vs veh, CREB1 / RFU, DNAJC13 / Fold change vs veh, DNAJC13 / RFU, GNAQ / Fold change vs veh, GNAQ / RFU, CDK5R1 / Fold change vs veh, CDK5R1 / RFU, ZRANB3 / Fold change vs veh, ZRANB3 / RFU, CUL4A / Fold change vs veh, CUL4A / RFU, CCNY / Fold change vs veh, CCNY / RFU, UFL1 / Fold change vs veh, UFL1 / RFU, COG3 / Fold change vs veh, COG3 / RFU, DIAPH2 / Fold change vs veh, DIAPH2 / RFU, SKA2 / Fold change vs veh, SKA2 / RFU, AFF3 / Fold change vs veh, AFF3 / RFU, LMF1 / Fold change vs veh, LMF1 / RFU, IPO11 / Fold change vs veh, IPO11 / RFU, DFFB / Fold change vs veh, DFFB / RFU, FOXP1 / Fold change vs veh, FOXP1 / RFU, CARD8 / Fold change vs veh, CARD8 / RFU, STRN3 / Fold change vs veh, STRN3 / RFU, ADK / Fold change vs veh, ADK / RFU, RASSF2 / Fold change vs veh, RASSF2 / RFU, WIPF1 / Fold change vs veh, WIPF1 / RFU, LARP1B / Fold change vs veh, LARP1B / RFU, RASA1 / Fold change vs veh, RASA1 / RFU, RB1 / Fold change vs veh, RB1 / RFU, PPFIA1 / Fold change vs veh, PPFIA1 / RFU, MAT2A / Fold change vs veh, MAT2A / RFU, CCT5 / Fold change vs veh, CCT5 / RFU, WDR92 / Fold change vs veh, WDR92 / RFU, CUX1 / Fold change vs veh, CUX1 / RFU, TTC7A / Fold change vs veh, TTC7A / RFU, TMEM135 / Fold change vs veh, TMEM135 / RFU, DEPTOR / Fold change vs veh, DEPTOR / RFU, CPM / Fold change vs veh, CPM / RFU, DNAJB6 / Fold change vs veh, DNAJB6 / RFU, CACNA2D3 / Fold change vs veh, CACNA2D3 / RFU, DTX4 / Fold change vs veh, DTX4 / RFU, TFCP2 / Fold change vs veh, TFCP2 / RFU, GMCL1 /// GMCL1P1 / Fold change vs veh, GMCL1 /// GMCL1P1 / RFU, AEBP2 / Fold change vs veh, AEBP2 / RFU, SNHG1 /// SNORD22 /// SNORD25 /// SNORD26 /// SNORD27 /// SNORD28 /// SNORD29 /// SNORD31 / Fold change vs veh, SNHG1 /// SNORD22 /// SNORD25 /// SNORD26 /// SNORD27 /// SNORD28 /// SNORD29 /// SNORD31 / Fold change (Aza/veh), C12orf56 (ProbeSet 11735607_a_at) / Fold change (ACY-1035/veh), C12orf56 (ProbeSet 11735607_a_at) / Fold change (Aza/veh), FGFR1OP (ProbeSet 11751329_s_at) / Fold change (ACY-1035/veh), FGFR1OP (ProbeSet 11751329_s_at) / Fold change (Aza/veh), VPS36 (ProbeSet 11739960_a_at) / Fold change (ACY-1035/veh), VPS36 (ProbeSet 11739960_a_at) / RFU SYPL1 (11715823_x_at) / Fold change /veh SYPL1 (11715823_x_at) / RFU IGFBP7 (11715501_s_at) / Fold change /veh IGFBP7 (11715501_s_at) / RFU REEP3 (11722064_at) / Fold change /veh REEP3 (11722064_at) / RFU IGLL1 (11728026_x_at) / Fold change /veh IGLL1 (11728026_x_at): dose or concentration left out as unconfirmed. To be noted: MV-4-11 cells, 48 hours.

Turning to `Nc1ncn([C@@H]2O[C@H](CO)[C@@H](O)[C@H]2O)c(=O)n1` [azacitidine], the “Fold change /veh NR4A2 (11747474_a_at)” value is 0.97.

For the origin of these results see PMC5218480 (PLoS ONE, 2017).
